Source: US11957699B2, “Composition comprising punicalagin for inhibiting PAR2 activity” (INDUSTRY-ACADEMIC COOPERATION FOUNDATION, YONSEI UNIVERSITY, priority 2018, dated 2024)

What was measured:
[1] = system: C57BL6N mice with pruritus induced by PAR2-AP; test: Pruritus induced by PAR2-AP in mice (number of scratches); format: in vivo
Method: In seven-week-old C57BL6N mice, it was confirmed whether punicalagin (PG) has an effect of alleviating pruritus symptoms induced by PAR2 receptor activation by PAR2-AP (activating peptide). In addition, the effects of punicalin (PNC) and ellagic acid (EA), which are metabolites of punicalagin and contained in pomegranate peel in a large amount, were also confirmed.
Specifically, each of 0, 1, 3, and 10 mg/kg punicalagin (n=4) was dissolved in physiological saline and intraperitoneally injected, and after 30 minutes, 100 μg of PAR2-AP was intradermally injected to induce pruritus. As control groups, a group which was intraperitoneally injected with physiological saline only (n=4) and a group which was intraperitoneally injected with 10 mg/kg punicalagin (n=4) were established, and the number of scratches was measured for 40 minutes.

PAR2 [2] = target: T1, PAR2 (Homo sapiens, UniProt P55085); test: Intracellular calcium increase by trypsin (PAR2 receptor activation) in HaCaT keratinocytes; format: cell-based; parameters: endogenous in cells; host or cells: HaCaT keratinocytes; details: HaCaT, 0.1 μM trypsin, 10 minutes pretreatment
T1 sequence (P55085 26-397): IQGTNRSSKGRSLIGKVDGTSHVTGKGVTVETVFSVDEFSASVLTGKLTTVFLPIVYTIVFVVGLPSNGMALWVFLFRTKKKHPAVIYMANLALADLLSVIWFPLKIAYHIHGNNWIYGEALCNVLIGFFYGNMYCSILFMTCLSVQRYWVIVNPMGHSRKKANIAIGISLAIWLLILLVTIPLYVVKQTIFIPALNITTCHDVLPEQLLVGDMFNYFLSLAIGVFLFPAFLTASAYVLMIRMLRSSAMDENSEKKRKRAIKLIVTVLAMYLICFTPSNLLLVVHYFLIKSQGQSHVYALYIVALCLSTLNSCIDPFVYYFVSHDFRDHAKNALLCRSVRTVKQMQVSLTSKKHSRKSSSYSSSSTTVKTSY
Method: After keratinocytes (HaCaT) were cultured for 48 hours in a 96-well micro plate with the DMEM culture medium, the culture medium was removed, and then, 100 μL of the Flou4-NW dye mixture was added. While blocking the light, it was stabilized for 1 hour such that a calcium ion dye (Ca^2+ dye) was loaded into the cells. 100 μM punicalagin was treated, and the concentration change of intracellular calcium ions was measured for 5 minutes (panel A of FIG. 17). Next, punicalin (0, 1, 3, 10, 20, 30, 100, and 300 μM) by concentration (panel B of FIG. 17) or punicalagin (0, 1, 3, 5, 10, 20, 30, and 100 μM) by concentration (panel C of FIG. 17) was treated for 10 minutes, and then, each well was treated with 0.1 μM trypsin to measure the concentration change of intracellular calcium ions according to PAR2 receptor activation.

PAR2 [3] = target: T1, PAR2; test: Increase of intracellular calcium ions by PAR2-AP in HT-29 cells (Fluo4-NW); format: cell-based; parameters: endogenous in cells; host or cells: HT-29 colon cancer cells
Method: After colon cancer cells (HT-29) were cultured for 48 hours in a 96-well micro plate with the RPMI1640 culture medium, the culture medium was removed, and then, 100 μL of the Flou4-NW dye mixture was added. While blocking the light, it was stabilized for 1 hour such that a calcium ion dye (Ca^2+ dye) was loaded into the cells. Next, after treating punicalin (0, 3, 10, and 30 μM), punicalagin (0, 0.3, 1, 2, 3, and 10 μM), or ellagic acid (0, 30, and 100 μM) for 10 minutes by concentration, each well was treated with 30 μM PAR2-AP (PAR2-activating peptide, SLIGRL-NH2) to measure the concentration change in intracellular calcium ions.

[4] = system: SD rats with acute pancreatitis induced by caerulein; test: Acute pancreatitis induced by caerulein in rats; format: in vivo; details: 10 mg/kg, 30 minutes before 40 μg/kg caerulein, pancreas extracted after 2 hours
Method: In 6-week-old SD rats, it was confirmed whether punicalagin has an effect of alleviating symptoms of acute pancreatitis induced by caerulein.
Specifically, […], and after 30 minutes, 40 μg/kg of caerulein, which is an acute pancreatitis-inducing substance, was intraperitoneally injected, and then, after 2 hours, the pancreas of the experimental animals was extracted and analyzed.
First, the weight of the extracted pancreas was measured to determine whether punicalagin inhibits edema, which is a symptom of acute pancreatitis. As a result, it was confirmed that when 10 mg/kg punicalagin was administered to […], in which acute pancreatitis was induced by caerulein, the edema of the pancreas was inhibited by 95% or more (panel A of FIG. 8).
Next, as a result of observing the nucleus and cytoplasm of the extracted pancreatic tissue with a microscope through H&E staining in order to confirm the damage to pancreatic cells by caerulein, it was confirmed that in the rats administered with caerulein, the distance between pancreatic cells was increased and the cells were damaged due to symptoms of acute pancreatitis.

Row | Structure (SMILES) | number of scratches for 40 minutes ([1]; 10 mg/kg, PAR2-AP group about 240) | inhibition of PAR2 receptor activity by trypsin (PAR2 [2]) | inhibitory effect on the PAR2 receptor (PAR2 [3]; found by compound library search and molecular physiological experiments) | inhibition of edema of the pancreas (pancreas weight) [4] | numbers of scratches ([1]; 3 mg/kg ellagic acid group (n=3)) | inhibition of the PAR2 receptor (PAR2 [3]; HT-29 cells, PAR2-AP, high concentration (100 μM))
1 | O=C1OC[C@H]2OC(O)[C@H](O)[C@@H](O)[C@@H]2OC(=O)c2cc(O)c(O)c(O)c2-c2c(O)c(O)c3oc(=O)c4c(c(O)c(O)c5oc(=O)c2c3c54)-c2c1cc(O)c(O)c2O (mixture of isomers) [punicalin, reference compound] | about 197 times | inhibited PAR2 receptor activity by trypsin in a concentration-dependent manner | relatively weak inhibitory effect | – | – | –
2 | O=c1oc2c(O)c(O)cc3c(=O)oc4c(O)c(O)cc1c4c23 [ellagic acid, reference compound] | – | – | – | not significantly inhibited | not significantly reduced | did not inhibit
